Assay: Oxidative stress, Example 29 (α-hANP, hydrogen peroxide, HPLC)
Assay type: physicochemical
Settings: 0.1 mg/mL, solution E pH 4.8, 0.2% hydrogen peroxide, 37° C., one hour
Method: A gel preparation 29-48 of formulation 48 containing 0.1 mg/mL of α-hANP was prepared in an amount of 500 μL in a microtube, in the same manner as in the preparing method in (1) of Example 2, while using a solution E (pH 4.8) containing 37.5 mg/mL of D-mannitol and 5 mg/mL of glycine, in place of the solution A. Then, 50 μL of 0.2% hydrogen peroxide was added to the gel preparation, followed by incubation at 37° C. for one hour. Immediately after the incubation, 200 μL of 0.4 M methionine and 250 μL of water were added to the sample, and the gel preparation was disintegrated by a microspatula. The sample was then centrifuged, the supernatant was filtered through a membrane filter to remove aggregates, and the amount of α-hANP contained in the solution was determined by the HPLC method. Note that this experiment was conducted with N=2, and the remaining rate of α-hANP was expressed based on the starting amount. Besides, as a control, an α-hANP solution prepared by dissolving α-hANP in the solution E so as to obtain a concentration of 0.1 mg/mL was subjected to the same process as above, exclusive of the disintegrating operation by the microspatula.

Remaining rate of α-hANP after loaded with oxidative stress, run 1: 65.4%
Remaining rate of α-hANP after loaded with oxidative stress, run 2: 64.7%
SMILES: CC[C@H](C)[C@@H]1NC(=O)[C@H](CCCNC(=N)N)NC(=O)[C@H](CC(=O)O)NC(=O)[C@H](CCSC)NC(=O)[C@H](CCCNC(=N)N)NC(=O)CNC(=O)CNC(=O)[C@H](Cc2ccccc2)NC(=O)[C@@H](NC(=O)[C@H](CO)NC(=O)[C@H](CO)NC(=O)[C@H](CCCNC(=N)N)NC(=O)[C@H](CCCNC(=N)N)NC(=O)[C@H](CC(C)C)NC(=O)[C@@H](N)CO)CSSC[C@@H](C(=O)N[C@@H](CC(N)=O)C(=O)N[C@@H](CO)C(=O)N[C@@H](Cc2ccccc2)C(=O)N[C@@H](CCCNC(=N)N)C(=O)N[C@@H](Cc2ccc(O)cc2)C(=O)O)NC(=O)CNC(=O)[C@H](CC(C)C)NC(=O)CNC(=O)[C@H](CO)NC(=O)[C@H](CCC(N)=O)NC(=O)[C@H](C)NC(=O)CNC1=O [α-hANP solution, α-human atrial natriuretic polypeptide]

— US20200261584A1, “STABILIZED PROTEIN GEL PREPARATION” (TERUMO KABUSHIKI KAISHA, priority 2013, published 2020)
